Laboratory results reported in US12643858B2 (Inipharm, Inc., priority 2020, dated 2026).
pIC50: −log10 of the molar value.

Each compound was assayed against T1, HSD17B13 enzyme (Homo sapiens, UniProt Q7Z5P4) (assay: NADH detection assay (fluorescence based LTB3 assay) for HSD17B13 activity). Settings: substrate 25 μM LTB3, 3 mM NAD+, 125 nM HSD17B13 enzyme, 1 hour at 26.5° C.
T1 construct: His; made in house; host or cells: E. coli
T1 sequence (Q7Z5P4 20-300): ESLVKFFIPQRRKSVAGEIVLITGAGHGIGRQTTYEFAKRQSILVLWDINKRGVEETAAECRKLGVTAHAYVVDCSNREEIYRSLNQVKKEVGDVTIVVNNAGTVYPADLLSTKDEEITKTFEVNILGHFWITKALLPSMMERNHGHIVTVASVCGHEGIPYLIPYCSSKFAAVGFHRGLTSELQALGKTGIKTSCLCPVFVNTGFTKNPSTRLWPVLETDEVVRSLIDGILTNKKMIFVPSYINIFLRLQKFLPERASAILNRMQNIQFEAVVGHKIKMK
Type: biochemical
Description: Example A: NADH Detection Assay for Evaluation of HSD17ß13 Activity and Identification of Inhibitors
The fluorescence based Leukotriene B3 (LTB3) assay monitors the fluorescence of NADH, which is generated from NAD+ during the dehydrogenation of the substrate LTB3. The reactions were performed in a 384-well plates (Greiner; #655076) in a 20 μl reaction volume containing the following reagents (final concentrations): 25 μM LTB3 (Cayman; #20109); 3 mM NAD+ (Sigma; #N0623); 125 nM HSD17B13 enzyme (in-house; E. coli expressed His-tagged, purified, soluble protein); […] potassium phosphate buffer, pH 7.4; and 1% DMSO. Reactions were initiated by co-addition of NAD+ and enzyme, and monitored for 1 hour at 26.5° C. Generation of NADH was measured as the fluorescence signal (Excitation at 340 nm and Emission at 445 nm) at 1 hour minus the baseline fluorescence at t=0. Fluorescence signals in the absence of LTB3 (negative control values), were subtracted from all values so that the results reflected substrate-dependent production of NADH. NADH standards were included to allow the conversion of relative fluorescence units into rates of enzyme activity. Enzyme activity in the presence of test compounds was expressed as a percentage of the uninhibited enzyme activity, and plotted versus inhibitor concentration. Non-linear regression was performed using a four-parameter logistic model and GraphPad Prism software (GraphPad Software, La Jolla, CA). Ten concentrations of inhibitor were tested (in the range of 30 μM-2.5 nM), and two independent assessments were performed at each concentration.

pIC50 | SMILES
≥ 5.30 | O=S(=O)(Nc1ccccc1)c1cccc(-c2cccc(Oc3ccc(F)c(O)c3)n2)c1 [Example 45, 3-(6-(4-fluoro-3-hydroxyphenoxy)pyridin-2-yl)-N-phenylbenzene sulfonamide]
5.00 to 5.30 | O=S(=O)(Nc1cccc(-c2cccc(Oc3ccc(F)c(O)c3)n2)c1F)C1CC1 [Example 114, N-{2-fluoro-3-[6-(4-fluoro-3-hydroxyphenoxy)pyridin-2-yl]phenyl} cyclopropanesulfonamide]
5.00 to 5.30 | Oc1cccc(-c2cccc(Oc3cccnc3)n2)c1F [Example 2, 2-fluoro-3-(6-(pyridin-3-yloxy)pyridin-2-yl) phenol]
< 4.52 | CN(c1ccc(F)c(O)c1)c1cccc(-c2cccc(O)c2F)c1C#N [Example 23]
4.52 to 5.00 | Oc1cc(Oc2cccc(-c3cc4ccccc4s3)n2)ccc1F [Example 9, 5-((6-(benzo[b]thiophen-2-yl)pyridin-2-yl)oxy)-2-fluorophenol]
5.00 to 5.30 | Oc1cc(Oc2cccc(-c3ccc(F)cc3F)n2)ccc1F [Example 84, 5-{[6-(2,4-difluorophenyl)pyridin-2-yl]oxy}-2-fluorophenol]
5.00 to 5.30 | Oc1cc(Oc2cccc(-c3c(F)cccc3F)n2)ccc1F [Example 78, 5-((6-(2,6-difluorophenyl)pyridin-2-yl)oxy)-2-fluorophenol]
≥ 5.30 | O=c1[nH]c2ccc(-c3cccc(Oc4ccc(F)c(O)c4)n3)cc2[nH]1 [Example 58, 5-(6-(4-fluoro-3-hydroxyphenoxy)pyridin-2-yl)-1,3-dihydro-2H-benzo[d]imidazol-2-one]
≥ 5.30 | CC(=O)Nc1cccc(-c2cccc(Oc3ccc(F)c(O)c3)n2)c1 [Example 79, N-(3-(6-(4-fluoro-3-hydroxyphenoxy)pyridin-2-yl)phenyl)acetamide]
5.00 to 5.30 | O=S(=O)(c1ccc(F)c(O)c1)c1cccc(-c2cccc(O)c2F)n1 [Example 55, 2-fluoro-3-[6-(4-fluoro-3-hydroxybenzenesulfonyl)pyridin-2-yl]phenol]
≥ 5.30 | Oc1cc(Oc2cccc(-c3cc(F)ccc3F)n2)ccc1F [Example 88, 5-{[6-(2,5-difluorophenyl)pyridin-2-yl]oxy}-2-fluorophenol]
≥ 5.30 | Oc1cc(Oc2cccc(-c3ccccc3F)n2)ccc1F [Example 90, 2-fluoro-5-((6-(2-fluorophenyl)pyridin-2-yl)oxy)phenol]
< 4.52 | COc1cc(Oc2nccc(-c3cccc(O)c3F)n2)ccc1F [Example 10, 2-fluoro-3-[2-(4-fluoro-3-methoxyphenoxy)pyrimidin-4-yl]phenol]
≥ 5.30 | Oc1cc(Oc2cccc(-c3cccnc3)n2)ccc1F [Example 1, 5-([2,3′-bipyridin]-6-yloxy)-2-fluorophenol]
5.00 to 5.30 | Nc1nc2cc(-c3cccc(Oc4ccc(F)c(O)c4)n3)ccc2o1 [Example 32, 5-{[6-(2-amino-1,3-benzoxazol-5-yl)pyridin-2-yl]oxy}-2-fluorophenol]
5.00 to 5.30 | O=c1[nH]c2ccc(Oc3cccc(-c4cccc(O)c4F)n3)cc2[nH]1 [Example 41, 5-((6-(2-fluoro-3-hydroxyphenyl)pyridin-2-yl)oxy)-1,3-dihydro-2H-benzo[d]imidazol-2-one]
< 4.52 | CC(=O)N1CCN(S(=O)(=O)c2cccc(-c3cccc(Oc4ccc(F)c(O)c4)n3)c2)CC1 [Example 42, 1-(4-{3-[6-(4-fluoro-3-hydroxyphenoxy)pyridin-2-yl]benzenesulfonyl}piperazin-1-yl)ethan-1-one]
4.52 to 5.00 | CS(=O)(=O)c1ccc(-c2cccc(Oc3ccc(F)c(O)c3)n2)cc1 [Example 77, 2-fluoro-5-((6-(4-(methylsulfonyl)phenyl)pyridin-2-yl)oxy)phenol]
≥ 5.30 | Oc1cc(Oc2cccc(-c3ccccc3Cl)n2)ccc1F [Example 83, 5-{[6-(2-chlorophenyl)pyridin-2-yl]oxy}-2-fluorophenol]
< 4.52 | COc1cccc(-c2cccc(Oc3ccc(F)c(NS(C)(=O)=O)c3)n2)c1F [Example 111, N-(2-fluoro-5-((6-(2-fluoro-3-methoxyphenyl)pyridin-2-yl)oxy)phenyl) methanesulfonamide]
< 4.52 | CS(=O)(=O)c1cccc(-c2cccc(Oc3ccc(F)c(O)c3)n2)c1 [Example 75, 2-fluoro-5-((6-(3-(methylsulfonyl)phenyl)pyridin-2-yl)oxy)phenol]

pIC50 | SMILES
< 4.52 | O=C(O)c1cccc(-c2cccc(Oc3ccc(F)c(O)c3)n2)c1 [Example 68, 3-(6-(4-fluoro-3-hydroxyphenoxy)pyridin-2-yl)benzoic acid]
≥ 5.30 | N#Cc1cc(Oc2ccc(F)c(O)c2)nc(-c2cccc(O)c2F)c1 [Example 27, 2-(4-fluoro-3-hydroxyphenoxy)-6-(2-fluoro-3-hydroxyphenyl) pyridine-4-carbonitrile]
4.52 to 5.00 | Oc1cc(Oc2cccc(-c3ccc(C(F)(F)F)cc3)n2)ccc1F [Example 98, 2-fluoro-5-((6-(4-(trifluoromethyl)phenyl)pyridin-2-yl)oxy)phenol]
4.52 to 5.00 | CNC(=O)c1cc(Oc2ccc(F)c(O)c2)nc(-c2cccc(O)c2F)c1 [Example 69, 2-(4-fluoro-3-hydroxyphenoxy)-6-(2-fluoro-3-hydroxyphenyl)-N-methylpyridine-4-carboxamide]
≥ 5.30 | COc1ccc(-c2cccc(Oc3ccc(F)c(O)c3)n2)c(F)c1 [Example 87, 2-fluoro-5-{[6-(2-fluoro-4-methoxyphenyl)pyridin-2-yl]oxy}phenol]
5.00 to 5.30 | Oc1cc(Oc2cccc(-c3cccs3)n2)ccc1F [Example 8, 2-fluoro-5-((6-(thiophen-2-yl)pyridin-2-yl)oxy) phenol]
< 4.52 | COc1cccc(-c2cccc(Oc3cccc(NS(=O)(=O)C4CC4)c3)n2)c1F [Example 95, N-(3-{[6-(2-fluoro-3-methoxyphenyl)pyridin-2-yl]oxy}phenyl)cyclopropane-sulfonamide]
4.52 to 5.00 | Oc1cccc(-c2cccc(Oc3ccc(F)c(O)c3)n2)c1 [Example 97, 2-fluoro-5-{[6-(3-hydroxyphenyl)pyridin-2-yl]oxy}phenol]
≥ 5.30 | Oc1cccc(-c2cccc(Oc3ccc4cn[nH]c4c3)n2)c1F [Example 4, 6-((6-(2-fluoro-3-methoxyphenyl)pyridin-2-yl)oxy)-1H-indazole and 3-(6-((1H-indazol-6-yl)oxy)pyridin-2-yl)-2 fluorophenol]
5.00 to 5.30 | Oc1cc(Oc2cccc(-c3cccc(C(F)(F)F)c3)n2)ccc1F [Example 103, 2-fluoro-5-((6-(3-(trifluoromethyl)phenyl)pyridin-2-yl)oxy)phenol]
< 4.52 | Oc1cccc(-c2cccc(Oc3ccc(F)c(OC(F)F)c3)n2)c1F [Example 14, 3-{6-[3-(difluoromethoxy)-4-fluorophenoxy]pyridin-2-yl}-2-fluorophenol]
≥ 5.30 | Oc1ccc(Oc2cccc(-c3cccc(O)c3F)n2)cc1F [Example 37, 2-fluoro-3-[6-(3-fluoro-4-hydroxyphenoxy)pyridin-2-yl] phenol]
≥ 5.30 | Oc1cccc(Oc2cccc(-c3cccc(O)c3F)n2)c1F [Example 36, 2-fluoro-3-(6-(2-fluoro-3-hydroxyphenoxy)pyridin-2-yl)phenol]
≥ 5.30 | Oc1cc(Oc2cccc(-c3ccc(O)c(F)c3)n2)ccc1F [Example 39, 2-fluoro-4-(6-(4-fluoro-3-hydroxyphenoxy)pyridin-2-yl)phenol]
5.00 to 5.30 | NS(=O)(=O)c1cccc(-c2cccc(Oc3ccc(F)c(O)c3)n2)c1 [Example 49, 3-[6-(4-fluoro-3-hydroxyphenoxy)pyridin-2-yl]benzene-1-sulfonamide]
< 4.52 | CNC(=O)c1cc(Oc2ccc(F)c(OC)c2)nc(-c2cccc(O)c2F)c1 [Example 70, 2-(2-fluoro-3-hydroxyphenyl)-6-(4-fluoro-3-methoxyphenoxy)-N-methylpyridine-4-carboxamide]
5.00 to 5.30 | CNc1nc2cc(-c3cccc(Oc4ccc(F)c(O)c4)n3)ccc2s1 [Example 21]
≥ 5.30 | N#Cc1c(Oc2ccc(F)c(O)c2)cccc1-c1cccc(O)c1F [Example 22, 2′-fluoro-3-(4-fluoro-3-hydroxyphenoxy)-3′-hydroxy-[1,1′-biphenyl]-2-carbonitrile]
≥ 5.30 | Oc1cc(Oc2cccc(-c3ccc4scnc4c3)n2)ccc1F [Example 50, 5-{[6-(1,3-benzothiazol-5-yl)pyridin-2-yl]oxy}-2-fluorophenol]
≥ 5.30 | NC(=O)c1ccc(-c2cccc(O)c2F)nc1Oc1ccc(F)c(O)c1 [Example 25, 2-(4-fluoro-3-hydroxyphenoxy)-6-(2-fluoro-3-hydroxyphenyl)pyridine-3-carboxamide]
